{"source": "paper PMC7078479", "about": "“Sulfamoyl Heteroarylcarboxylic Acids as Promising Metallo-β-Lactamase Inhibitors for Controlling Bacterial Carbapenem Resistance” (mBio, 2020)", "key": {"VIM-2": {"target": "T1, VIM-2 (Escherichia coli, UniProt Q5U7L7)", "T1 construct": "made in house", "experiment": "Inhibition of IPM hydrolysis by purified VIM-2, Ki by Lineweaver-Burk plots", "type": "biochemical", "details": "IPM as substrate, competitive model, mean of three replicates; read-out: Inhibition constant Ki VIM-2", "protocol": "MBL (10 nM) was mixed with the inhibitors and incubated for 5 min at 30°C. IPM was added to reach a concentration of 150 μM, and the velocity of IPM hydrolysis was monitored at 298 nm. The assay was performed at 30°C using 10 mM HEPES (pH 7.5) buffer containing 200 mM NaCl and 50 μg/ml bovine serum albumin (BSA) for IMP-1, NDM-1, VIM-2, and SMB-1. For SFH-1 and L1, another 10 mM HEPES (pH 7.5) buffer containing 200 mM NaCl, 20 μM ZnSO4, and 50 μg/ml BSA was used.\nInitial velocities (vo) were measured after varying the concentrations of IPM and inhibitors, and inverse velocities (1/vo) were plotted against inverse IPM concentrations […]. Lineweaver-Burk plots were constructed to obtain the inhibition constant (Ki) with the competitive inhibition model using the SigmaPlot 13 suite (Hulinks)."}, "TLA-3": {"test_system": "TLA-3", "experiment": "Serine β-lactamase inhibition, nitrocefin hydrolysis by TLA-3", "type": "biochemical", "details": "nitrocefin 100 μM", "protocol": "(§1) The serine–β-lactamases (1 nM) TLA-3, CMY-2, and OXA-48 were mixed with SFC in 100 mM phosphate buffer (pH 7.0) and incubated for 5 min at 30°C. Nitrocefin was added to reach a concentration of 100 μM, and the velocity of nitrocefin hydrolysis was monitored at 482 nm. Avibactam (MedKoo Bioscience, Morrisville, NC) was used as an inhibitor for serine–β-lactamases. The inhibitory effect of SFC against ACE was evaluated using ACE Kit-WST (Dojindo Laboratories, Kumamoto, Japan). The residual ACE activity was calculated as described in the manufacturer’s protocol as follows: [1 − (Acontrol − Asample)/(Acontrol − Abackground)] × 100. EDTA solution (Nippon Gene, Tokyo, Japan) was used as an ACE inhibitor."}, "[1]": {"target": "T2, angiotensin-converting enzyme (ACE) (Homo sapiens, UniProt P12821)", "T2 construct": "purchased Dojindo Laboratories ACE Kit-WST", "T2 sequence (P12821 30-1306)": "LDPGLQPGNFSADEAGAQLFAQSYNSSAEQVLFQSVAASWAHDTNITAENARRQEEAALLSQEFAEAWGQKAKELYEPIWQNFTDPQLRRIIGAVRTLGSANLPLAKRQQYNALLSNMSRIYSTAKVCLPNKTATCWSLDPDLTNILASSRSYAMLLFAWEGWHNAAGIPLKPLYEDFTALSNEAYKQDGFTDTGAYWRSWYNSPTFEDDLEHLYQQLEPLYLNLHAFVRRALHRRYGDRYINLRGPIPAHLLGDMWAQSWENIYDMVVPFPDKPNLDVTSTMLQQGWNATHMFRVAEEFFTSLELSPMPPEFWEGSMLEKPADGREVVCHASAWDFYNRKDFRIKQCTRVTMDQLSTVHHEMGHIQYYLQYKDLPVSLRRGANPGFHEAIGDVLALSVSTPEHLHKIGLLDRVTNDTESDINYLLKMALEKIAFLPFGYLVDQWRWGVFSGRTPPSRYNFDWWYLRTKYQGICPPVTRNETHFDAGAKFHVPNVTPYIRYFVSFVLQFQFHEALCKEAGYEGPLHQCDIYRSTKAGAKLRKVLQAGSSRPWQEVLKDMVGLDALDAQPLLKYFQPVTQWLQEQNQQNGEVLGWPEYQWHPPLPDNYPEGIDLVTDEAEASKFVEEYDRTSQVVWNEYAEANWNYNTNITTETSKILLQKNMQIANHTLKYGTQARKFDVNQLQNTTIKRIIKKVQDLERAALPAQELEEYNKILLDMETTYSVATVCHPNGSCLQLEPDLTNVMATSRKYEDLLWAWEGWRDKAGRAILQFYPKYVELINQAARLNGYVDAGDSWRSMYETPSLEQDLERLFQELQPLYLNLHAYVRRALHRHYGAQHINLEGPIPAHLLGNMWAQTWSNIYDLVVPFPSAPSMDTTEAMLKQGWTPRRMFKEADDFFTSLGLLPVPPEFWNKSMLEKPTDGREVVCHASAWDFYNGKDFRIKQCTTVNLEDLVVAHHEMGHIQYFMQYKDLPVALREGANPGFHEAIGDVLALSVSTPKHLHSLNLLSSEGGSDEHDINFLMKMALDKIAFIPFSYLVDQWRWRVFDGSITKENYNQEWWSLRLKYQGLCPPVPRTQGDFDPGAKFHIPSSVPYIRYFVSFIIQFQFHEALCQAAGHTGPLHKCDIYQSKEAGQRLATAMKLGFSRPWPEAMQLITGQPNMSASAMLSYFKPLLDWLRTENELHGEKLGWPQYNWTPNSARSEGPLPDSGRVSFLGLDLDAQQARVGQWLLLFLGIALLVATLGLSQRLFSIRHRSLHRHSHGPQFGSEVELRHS", "experiment": "ACE inhibition (ACE Kit-WST)", "type": "biochemical", "details": "human metalloenzyme", "protocol": "as §1"}, "E. coli DH5α/pBC-IMP-1": {"test_system": "E. coli DH5α/pBC-IMP-1", "experiment": "Susceptibility and checkerboard testing, IMP-1-producing E. coli", "type": "cell-based, Escherichia coli", "details": "for MIC: Escherichia coli", "protocol": "(§2) MICs were determined via the microdilution method according to the CLSI guidelines ([38]). In brief, 5 × 10^4 bacterial cells were inoculated in 100 μl of cation-adjusted Mueller-Hinton broth (Becton, Dickinson and Company, Franklin Lakes, NJ) containing the β-lactams and appropriately diluted inhibitors. The final concentration of DMSO was maintained at 2% in the assays. The tested plates were then incubated at 35°C for 16 to 20 h. The MIC value was determined as the lowest concentration of tested β-lactams where no bacterial growth was visibly observed. The optical density at 600 nm (OD600) value was measured using a plate reader for drawing the heat maps. The FIC index value was calculated using the following equation: FIC index=MIC of β-lactam with inhibitor/MIC of β-lactam alone+MIC of inhibitor with β-lactam/MIC of inhibitor alone\n(§3) Unless noted otherwise, the FIC index was defined as the lowest value among all obtained values. The synergistic effect was defined as the effect observed when the FIC index value was ≤0.5."}, "E. coli DH5α/pBC-NDM-1": {"test_system": "E. coli DH5α/pBC-NDM-1", "experiment": "Susceptibility and checkerboard testing, NDM-1-producing E. coli", "type": "cell-based, Escherichia coli", "details": "for MIC: Escherichia coli", "protocol": "as §2, §3"}, "[2]": {"test_system": "E. coli BL21(DE3)/pET-KHM-1", "experiment": "Susceptibility testing, KHM-1-producing E. coli", "type": "cell-based", "details": "Escherichia coli", "protocol": "as §2"}, "[3]": {"test_system": "P. aeruginosa PAO1/pME-VIM-2", "experiment": "Susceptibility testing, VIM-2-producing P. aeruginosa PAO1", "type": "cell-based", "details": "Pseudomonas aeruginosa", "protocol": "as §2"}, "[4]": {"test_system": "IMP-type MBL-producing Enterobacteriaceae", "experiment": "Susceptibility testing, 19 IMP-type MBL-producing Enterobacteriaceae isolates", "type": "cell-based", "details": "for Isolates whose MPM MIC decreased to susceptible criteria (MIC ≤1 μg/ml): IMP-producing isolates", "protocol": "as §2"}, "HeLa cells": {"test_system": "HeLa cells", "experiment": "Toxicity assay in HeLa cells (CellTiter 96 AQueous)", "type": "cell-based", "details": "24 h exposure, cell proliferation assay", "protocol": "HeLa cells were seeded at 5,000 cells per well in 96-well plates and cultured in Dulbecco’s modified Eagle’s medium (DMEM) (Wako Pure Chemical Industries, Osaka, Japan). After incubation for 24 h at 37°C with 5% CO2, staurosporine (Sigma-Aldrich, St. Louis, MO) and SHCs were added to each well (final DMSO concentration was 1%), after which the plates were incubated for another 24 h. Twenty microliters of tetrazolium solution, obtained from a CellTiter 96 AQueous one-solution cell proliferation assay kit (Promega, Madison, WI), was added into each well. The plate was incubated for 3 h under the same conditions mentioned above, and the absorbance at 490 nm was measured for the determination of cell proliferation."}, "[5]": {"experiment": "Acute toxicity study in mice", "type": "in vivo", "details": "male, CD1, mouse, in vivo, ip, intraperitoneal (i.p.) single injection, read-out: 50% lethal dose (LD50)", "protocol": "(§4) All experiments were approved by the Nagoya University Animal Ethics Committee, and all experiments were performed in a manner that minimized animal suffering. Male CD1 mice (4 weeks old; 20 to 25 g body weight) were purchased from Charles River Laboratories Japan (Yokohama, Japan). E. coli NUBL-24 (blaIMP-1) and K. pneumoniae MS5674 (blaNDM-1 and blaVIM-1) strains were inoculated on LB agar plates and grown for 18 h at 37°C. Bacteria were then scraped from the plates, and their concentration was adjusted to 5 × 10^6 to 1 × 10^7 CFU in saline solution containing 5% mucin; this solution was then i.p. injected into the mice. At 1 and 3 h after infection, saline solution, MPM, inhibitors, and a combination of MPM and inhibitor were i.p. injected. Mice were monitored for 7 days to formulate survival curves, after which they were euthanized by CO2 asphyxiation.\n(§5) For acute toxicity studies, mice were i.p. (400 μl/injection) or i.v. (150 μl/injection) administered a single injection of serially diluted SFC. Mortality was then monitored for 7 days."}, "mice": {"test_system": "mice", "experiment": "Acute toxicity study in mice", "type": "in vivo", "details": "intravenous (i.v.) single injection, 7 days", "protocol": "as §4, §5"}, "[6]": {"test_system": "IMP-1-producing E. coli NUBL-24", "experiment": "Mouse infection model, E. coli NUBL-24, survival", "type": "in vivo, mice", "protocol": "as §4"}, "[7]": {"details": "read-out: MIC of MPM + inhibitor (8 μg/ml)"}, "[8]": {"details": "read-out: MIC of MPM + inhibitor (32 μg/ml)"}}, "note": "“Also recorded” adds a separate entry of the source. Where two headings read alike, the source gives them in different places."}
{"smiles": "Cc1oc(C)c(S(N)(=O)=O)c1C(=O)O", "note": "[SFC, 2,5-dimethyl-4-sulfamoylfuran-3-carboxylic acid]", "values": [{"measurement": "Ki", "setting": "VIM-2", "result": 2810, "unit": "nM"}, {"measurement": "Inhibitory effect against TLA-3 (class A)", "setting": "TLA-3", "result": "nonexistent or insufficient"}, {"measurement": "Inhibitory effect on ACE", "setting": "[1]", "result": "no inhibitory effect"}, {"measurement": "MIC meropenem + 2 μg/mL compound", "setting": "E. coli DH5α/pBC-IMP-1; E. coli DH5α/pBC-IMP-1", "result": 0.063, "unit": "µg/mL"}, {"measurement": "Reduction in MPM MIC", "setting": "E. coli DH5α/pBC-IMP-1; E. coli DH5α/pBC-IMP-1, 2 μg/ml compound", "result": 16, "unit": "fold"}, {"measurement": "Reduction in MPM MIC", "setting": "E. coli DH5α/pBC-IMP-1; E. coli DH5α/pBC-IMP-1, 10 μg/ml compound", "result": 16, "unit": "fold"}, {"measurement": "MIC", "setting": "E. coli DH5α/pBC-IMP-1; [7]", "result": 0.031, "unit": "µg/mL"}, {"measurement": "MIC", "setting": "E. coli DH5α/pBC-IMP-1; [8]", "result": 0.031, "unit": "µg/mL"}, {"measurement": "FIC index", "setting": "E. coli DH5α/pBC-IMP-1; checkerboard with MPM, E. coli DH5α/pBC-IMP-1, lowest value", "result": 0.06}, {"measurement": "MIC meropenem + 2 μg/mL compound", "setting": "E. coli DH5α/pBC-NDM-1; E. coli DH5α/pBC-NDM-1", "result": 16, "unit": "µg/mL"}, {"measurement": "Reduction in MPM MIC", "setting": "E. coli DH5α/pBC-NDM-1; E. coli DH5α/pBC-NDM-1, 2 μg/ml compound", "result": 4, "unit": "fold"}, {"measurement": "MIC", "setting": "E. coli DH5α/pBC-NDM-1; [7]", "result": 2, "unit": "µg/mL"}, {"measurement": "MIC", "setting": "E. coli DH5α/pBC-NDM-1; [8]", "result": "≤ 0.25", "unit": "µg/mL"}, {"measurement": "FIC index", "setting": "E. coli DH5α/pBC-NDM-1; checkerboard with MPM, E. coli DH5α/pBC-NDM-1, lowest value", "result": 0.09}, {"measurement": "MIC", "setting": "[2]; [7]", "result": 4, "unit": "µg/mL"}, {"measurement": "MIC", "setting": "[2]; [8]", "result": 2, "unit": "µg/mL"}, {"measurement": "MIC", "setting": "[3]; PAO1, read-out: MIC of MPM + inhibitor (10 μg/ml)", "result": 32, "unit": "µg/mL"}, {"measurement": "MIC", "setting": "[3]; PAO1, read-out: MIC of MPM + inhibitor (50 μg/ml)", "result": 16, "unit": "µg/mL"}, {"measurement": "Reduction of MPM MIC50", "setting": "[4]; 10 μg/ml SFC, IMP-producing Enterobacteriaceae", "result": 128, "unit": "fold"}, {"measurement": "Isolates whose MPM MIC decreased to susceptible criteria (MIC ≤1 μg/ml)", "setting": "[4]; addition of 10 μg/ml SFC", "result": "16/19"}, {"measurement": "Isolates whose MPM MIC decreased to susceptible criteria (MIC ≤1 μg/ml)", "setting": "[4]; addition of 50 μg/ml SFC", "result": "17/19"}, {"measurement": "Toxicity in HeLa cells", "setting": "HeLa cells", "result": "very low toxicity; also recorded: low toxicity"}, {"measurement": "LD50 at 7 days", "setting": "[5]", "result": "> 1000", "unit": "mg/kg"}, {"measurement": "50% lethal dose (LD50)", "setting": "mice", "result": "246 mg/kg of body weight"}, {"measurement": "Mice rescued from death at the endpoint", "setting": "[6]; MPM (0.2 mg/kg)-SFC (100 mg/kg) combination therapy, i.p., 7 days following infection", "result": 90, "unit": "%"}, {"measurement": "Rescue of infected mice by monotherapy", "setting": "[6]; SFC 100 mg/kg or MPM 0.2 mg/kg i.p. at 1 and 3 h after infection, within 48 h", "result": "failed to rescue mice"}]}
